Source: ChEMBL document CHEMBL5321209, “Design, synthesis of novel benzimidazole derivatives as ENL inhibitors suppressing leukemia cells viability via downregulating the expression of MYC” (Eur J Med Chem, 2023)

Experiments:
Protein ENL [1] = target: T1, Protein ENL (Homo sapiens, UniProt Q03111); experiment: Inhibition of C-terminal 6xHis-tagged ENL YEATS domain (1 to 148 residues) (unknown origin) expressed in Escherichia coli BL21(DE3) cells using biotin-H3K27ace as substrate incubated for 45 mins by alpha screen assay
T1 sequence (Q03111 whole entry): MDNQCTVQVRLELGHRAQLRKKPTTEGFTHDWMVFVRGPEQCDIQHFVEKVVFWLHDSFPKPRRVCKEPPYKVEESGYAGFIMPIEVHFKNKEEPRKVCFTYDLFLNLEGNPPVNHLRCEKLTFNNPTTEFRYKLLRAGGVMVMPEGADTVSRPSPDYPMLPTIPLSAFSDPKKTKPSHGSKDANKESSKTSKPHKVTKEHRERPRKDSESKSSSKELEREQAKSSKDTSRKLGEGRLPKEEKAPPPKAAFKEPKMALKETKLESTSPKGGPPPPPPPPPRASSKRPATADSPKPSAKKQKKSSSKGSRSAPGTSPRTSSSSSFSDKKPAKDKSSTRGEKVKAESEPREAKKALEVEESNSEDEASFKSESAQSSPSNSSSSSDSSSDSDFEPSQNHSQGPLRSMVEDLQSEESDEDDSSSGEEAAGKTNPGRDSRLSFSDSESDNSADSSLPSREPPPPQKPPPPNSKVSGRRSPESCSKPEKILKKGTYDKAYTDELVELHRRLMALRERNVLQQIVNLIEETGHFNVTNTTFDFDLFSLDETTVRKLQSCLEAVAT

[2] = target: T2, Protein ENL (Homo sapiens) (UniProt Q03111); settings: dose 333.0 nM, time 45.0 min
T2 sequence (whole entry): T1 sequence (Q03111 whole entry)

[3] = target: T2, Protein ENL (Homo sapiens); settings: dose 111.0 nM, time 45.0 min
MOLM-13 [4] = experiment: Antiproliferative activity against human MOLM-13 cells assessed as inhibition of cell growth measured after 72 hrs by Cell Titer-Glo luminescent assay; type: functional, cell-based; settings: MOLM-13, 72 h
MOLM-13 [5] = experiment: Potency index, ratio of SGC-iMLLT IC50 to test compound IC50 for antiproliferative activity against human MOLM-13 cells; type: functional
[6] = target: T2, Protein ENL (Homo sapiens); settings: dose 50.0 µM
[7] = target: T2, Protein ENL (Homo sapiens); settings: dose 25.0 µM
[8] = target: T2, Protein ENL (Homo sapiens); settings: dose 12.5 µM
Description: Binding affinity to C-terminal 6xHis-tagged ENL YEATS domain (1 to 148 residues) (unknown origin) expressed in Escherichia coli BL21(DE3) cells assessed as thermal stability by measuring change in melting temperature at 12.5 uM by SYPRO dye-based thermal shift assay

[9] = target: T2, Protein ENL (Homo sapiens); settings: dose 6.3 µM
Description: Binding affinity to C-terminal 6xHis-tagged ENL YEATS domain (1 to 148 residues) (unknown origin) expressed in Escherichia coli BL21(DE3) cells assessed as thermal stability by measuring change in melting temperature at 6.3 uM by SYPRO dye-based thermal shift assay

Protein ENL [10] = target: T1, Protein ENL; experiment: Binding affinity to ENL YEATS domain (unknown origin) assessed as dissociation constant by ITC assay
MV4-11 = experiment: cells; settings: Homo sapiens, MV4-11, 72 h
Description: Antiproliferative activity against human MV4-11 cells assessed as inhibition of cell growth measured after 72 hrs by Cell Titer-Glo luminescent assay

Protein ENL [11] = target: T1, Protein ENL; experiment: Inhibition of C-terminal ENL YEATS domain (unknown origin) (M1 to A148 residues) using biotinylated peptide as substrate by alpha screen assay
Protein ENL [12] = target: T1, Protein ENL; experiment: Binding affinity to C-terminal ENL YEATS domain (unknown origin) (M1 to A148 residues) assessed as dissociation constant by ITC assay
[13] = Tmax in BALB/c mouse at 30 mg/kg, po measured after 0.5 to 24 hrs by LC-MS/MS assay; type: ADME, organism-based; settings: in vivo, time 0.5-24 hrs
[14] = Cmax in BALB/c mouse at 30 mg/kg, po measured after 0.5 to 24 hrs by LC-MS/MS assay; type: ADME, organism-based; design: dose 30 mg/kg, time 0.5-24 hrs, route po; settings: in vivo
[15] = Half life in BALB/c mouse at 30 mg/kg, po measured after 0.5 to 24 hrs by LC-MS/MS assay; type: ADME, organism-based; settings: in vivo, time 0.5-24 hrs
[16] = AUC (0 to t) in BALB/c mouse at 30 mg/kg, po measured after 0.5 to 24 hrs by LC-MS/MS assay; type: ADME, organism-based; design: dose 30 mg/kg, time 0.5-24 hrs, route po; settings: in vivo
[17] = AUC (0 to infinity) in BALB/c mouse at 30 mg/kg, po measured after 0.5 to 24 hrs by LC-MS/MS assay; type: ADME, organism-based; design: time lower 0.5 hrs, dose 30 mg/kg, time upper 24 hrs, route po; settings: in vivo
[18] = MRT (0 to infinity) in BALB/c mouse at 30 mg/kg, po measured after 0.5 to 24 hrs by LC-MS/MS assay; type: ADME, organism-based; settings: in vivo, time 0.5-24 hrs
Protein ENL [19] = target: T1, Protein ENL; experiment: Inhibition of recombinantC-terminal 6xHis-tagged ENL YEATS domain (1 to 148 residues) (unknown origin) expressed in Escherichia coli BL21(DE3) cells using H3(13-32)K27cr as substrate by FRET assay
Protein ENL [20] = target: T1, Protein ENL; experiment: Binding affinity toC-terminal 6xHis-tagged ENL YEATS domain (1 to 148 residues) (unknown origin) assessed as dissociation constant by BLI assay

SMILES	IC50 (Protein ENL [1])	inhibition [2]	inhibition [3]	also measured
C[C@H]1CCCN1Cc1nc2cc(NC(=O)c3ccc4c(c3)c3cc(F)ccc3c(=O)n4C)ccc2[nH]1	22.1 nM	99.2%	90.8%	
CCCCn1cc2cc(C(=O)Nc3ccc4[nH]c(CN5CCC[C@@H]5C)nc4c3)ccc2n1	35.3 nM	100%	98.4%	
C[C@H]1CCCN1Cc1nc2cc(NC(=O)c3ccc4c(cnn4CCNC(=O)Nc4cccc(F)c4)c3)ccc2[nH]1	46 nM	97.8%	67.6%	
C[C@H]1CCCN1Cc1nc2cc(NC(=O)c3ccc4c(cnn4CCN4CCOCC4)c3)ccc2[nH]1	14.5 nM	99.9%	98.3%	IC50 (MOLM-13 [4]): 39600 nM; Ratio IC50 (MOLM-13 [5]): 2; ΔTm [6]: 3.5 °C; ΔTm [7]: 2 °C; ΔTm [8]: 1.3 °C; ΔTm [9]: 0.8 °C
C[C@H]1CCCN1Cc1nc2cc(NC(=O)c3ccc4nn(CCN)cc4c3)ccc2[nH]1	17.2 nM	98.4%	84.1%	
C[C@H]1CCCN1Cc1nc2cc(NC(=O)c3ccc4c(cnn4CCN4CC(O)C(O)C4C(O)CO)c3)ccc2[nH]1 (stereo partly drawn)	32.3 nM	99.3%	84.6%	
CCn1cc2cc(C(=O)Nc3ccc4[nH]c(CN5CCC[C@@H]5C)nc4c3)ccc2n1	36.7 nM	99.7%	82.4%	
C[C@H]1CCCN1Cc1nc2cc(NC(=O)c3ccc4nn(C)cc4c3)ccc2[nH]1	77 nM	99.6%	86.8%	
C[C@@H]1NC(=O)[C@H]([C@H](C)O)NC(=O)[C@@H](NC(=O)OCc2ccccc2)CCCCNC(=N)NCCC[C@H](C(=O)N[C@@H](CCCCNC(=O)c2cnco2)C(N)=O)NC1=O				Kd (Protein ENL [10]): 14100 nM
C[C@H]1CCCN1Cc1nc2cc(NC(=O)N3C(CO)C(O)C(O)C3CO)ccc2[nH]1 (stereo partly drawn)	22 nM	98.5%	79.5%	IC50 (MOLM-13 [4]): > 100000 nM; IC50 (MV4-11): > 100000 nM
C[C@H]1CCCN1Cc1nc2cc(NC(=O)c3ccc4c(cnn4CCN4CC5OC(C)(C)OC5C4C4COC(C)(C)O4)c3)ccc2[nH]1 (stereo partly drawn)	56.4 nM	99.6%	89%	
C[C@H]1CCCN1Cc1nc2cc(NC(=O)c3ccc4c(cnn4CCNC(=O)c4ccccc4)c3)ccc2[nH]1	19.2 nM	99%	86.2%	
CCn1ncc2cc(C(=O)Nc3ccc4[nH]c(CN5CCC[C@@H]5C)nc4c3)ccc21	18.9 nM	100%	98.3%	
C[C@H]1CCCN1Cc1nc2cc(NC(=O)c3ccc4c5ccccc5n(C)c4c3)ccc2[nH]1	72.2 nM	96.5%	85.4%	
CCCCn1ncc2cc(C(=O)Nc3ccc4[nH]c(CN5CCC[C@@H]5C)nc4c3)ccc21	17 nM	100%	98%	
C[C@H]1CCCN1Cc1nc2cc(NC(=O)c3ccc4c5ccccc5c(=O)n(C)c4c3)ccc2[nH]1	31.8 nM	100%	99.2%	
C[C@H]1CCCN1Cc1nc2cc(NC(=O)c3ccc4nn(C5CCCC5)cc4c3)ccc2[nH]1	70.2 nM	96.1%	51%	
Cc1noc2cc(C(=O)Nc3ccc4[nH]c(CN5CCC[C@@H]5C)nc4c3)ccc12	10.7 nM	99.9%	99.1%	IC50 (MOLM-13 [4]): 37900 nM; Ratio IC50 (MOLM-13 [5]): 2; ΔTm [6]: 4.9 °C; ΔTm [7]: 3.9 °C; ΔTm [8]: 2.8 °C; ΔTm [9]: 1.8 °C; IC50 (MV4-11): 51400 nM
Cc1ccccc1C(=O)NCCn1ncc2cc(C(=O)Nc3ccc4[nH]c(CN5CCC[C@@H]5C)nc4c3)ccc21	35.4 nM	96.1%	68.4%	
Cc1nnc2ccc(C(=O)Nc3ccc4[nH]c(CN5CCC[C@@H]5C)nc4c3)cn12	267 nM	84.5%	57%	
COC(=O)c1ccc(C(=O)Nc2ccc3[nH]c(CN4CCCCC4)nc3c2)cc1				IC50 (Protein ENL [11]): 1600 nM; Kd (Protein ENL [12]): 754 nM
C[C@H]1CCCN1Cc1nc2cc(NC(=O)c3ccc4c(cnn4C)c3)ccc2[nH]1		99.7%	99.8%	Tmax [13]: 30 min; Cmax [14]: 33.6 ng/mL; half-life [15]: 30 min; AUC(0-t) [16]: 59.8 ng·h/mL; AUC(0-inf) [17]: 61 ng·h/mL; MRT inf [18]: 60 min; IC50 (MOLM-13 [4]): 74700 nM; ΔTm [6]: 4.3 °C; ΔTm [7]: 3.1 °C; ΔTm [8]: 2.2 °C; ΔTm [9]: 1.4 °C; IC50 (MV4-11): 35000 nM
Cc1noc2ccc(C(=O)Nc3ccc4[nH]c(CN5CCC[C@@H]5C)nc4c3)cc12	48.8 nM	99.3%	87.3%	
C[C@H]1CCCN1Cc1nc2cc(NC(=O)c3ccc4nn(CCNC(=O)OC(C)(C)C)cc4c3)ccc2[nH]1	37.9 nM	99.1%	56%	
C[C@H]1CCCN1Cc1nc2cc(NC(=O)c3ccc4c(cnn4CCN)c3)ccc2[nH]1	28.2 nM	100%	100%	
O=C(/C=C/c1ccc(-n2ccnc2)cc1)N1CCN(C(=O)c2ccco2)CC1				IC50 (Protein ENL [19]): 19000 nM; Kd (Protein ENL [20]): 14000 nM
Cc1cccc2c(=O)n(C)c3ccc(C(=O)Nc4ccc5[nH]c(CN6CCC[C@@H]6C)nc5c4)cc3c12	46.4 nM	95.6%	63.2%	
